Measured values taken from paper PMC12073402, “A Selective MAP3K1 Inhibitor Facilitates Discovery of NPM1 as a Member of the Network” (Molecules, 2025).

Columns and labels:
Assay in all cases: KiNativ kinome profiling in PANC-1 lysate
Type in all cases: binding
[1] = molecular target: T1, ZC1/HGK (Homo sapiens, UniProt O95819); details: Lys1
T1 construct: endogenous in cells; host or cells: PANC-1 cell lysate
In short: (§1)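 PANC-1 lysates were incubated with 5 μM inhibitor or DMSO, then labeled with a desthiobiotin-ATP acyl-phosphate probe that biotinylates conserved kinase lysines. Tryptic peptides were streptavidin-enriched and quantified by LC-MS/MS, reported as % change in MS signal from duplicate treated and duplicate control samples.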

[2] = molecular target: T2, p70S6Kb (Homo sapiens, UniProt Q9UBS0); details: Lys2
T2 construct: endogenous in cells; host or cells: PANC-1 cell lysate
In short: as §1

[3] = molecular target: T3, LOK (Homo sapiens, UniProt O94804)
T3 construct: we opted to conduct a kinome screen (KiNativ) in PANC-1 cell lysates; endogenous in cells; host or cells: PANC-1 cell lysate
In short: as §1

[4] = tested on: MAP2K1, MAP2K2; details: 5 µM
In short: as §1

[5] = tested on: IKKe, TBK1; details: 5 µM; Lys2; DIKPGNIMR
In short: as §1

[6] = molecular target: T4, CK2a1 (Homo sapiens, UniProt P68400); details: Protein Kinase Domain
T4 construct: endogenous in cells; host or cells: PANC-1 cell lysate
In short: as §1

[7] = molecular target: T5, MAP2K6 (Homo sapiens, UniProt P52564); details: for % Inhibition: 5 µM
T5 construct: endogenous in cells; host or cells: PANC-1 cell lysate
T5 sequence (P52564 1-334): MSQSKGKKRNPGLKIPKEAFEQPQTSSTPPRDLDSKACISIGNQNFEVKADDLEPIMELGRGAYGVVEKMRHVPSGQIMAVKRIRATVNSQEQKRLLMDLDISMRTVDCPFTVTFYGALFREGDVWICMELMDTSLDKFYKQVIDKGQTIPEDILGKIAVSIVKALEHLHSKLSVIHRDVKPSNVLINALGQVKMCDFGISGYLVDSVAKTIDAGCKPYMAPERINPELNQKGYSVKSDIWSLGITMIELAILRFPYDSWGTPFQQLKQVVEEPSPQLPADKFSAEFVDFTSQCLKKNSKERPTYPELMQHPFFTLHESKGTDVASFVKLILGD
In short: as §1

[8] = molecular target: T6, MPSK1 (Homo sapiens, UniProt O75716); details: Lys2
T6 construct: endogenous in cells; host or cells: PANC-1
In short: as §1

[9] = tested on: CDK11, CDK8; details: 5 µM; Lys2; DLKPANILVMGEGPER
In short: as §1

[10] = molecular target: T7, STLK6 (Homo sapiens, UniProt Q9C0K7); details: Lys1
T7 construct: endogenous in cells; host or cells: PANC-1 cell lysate
In short: as §1

[11] = molecular target: T8, DGKA (Homo sapiens, UniProt P23743); details: ATP
T8 construct: endogenous in cells; host or cells: PANC-1 lysate
In short: as §1

T3 sequence (O94804 whole entry): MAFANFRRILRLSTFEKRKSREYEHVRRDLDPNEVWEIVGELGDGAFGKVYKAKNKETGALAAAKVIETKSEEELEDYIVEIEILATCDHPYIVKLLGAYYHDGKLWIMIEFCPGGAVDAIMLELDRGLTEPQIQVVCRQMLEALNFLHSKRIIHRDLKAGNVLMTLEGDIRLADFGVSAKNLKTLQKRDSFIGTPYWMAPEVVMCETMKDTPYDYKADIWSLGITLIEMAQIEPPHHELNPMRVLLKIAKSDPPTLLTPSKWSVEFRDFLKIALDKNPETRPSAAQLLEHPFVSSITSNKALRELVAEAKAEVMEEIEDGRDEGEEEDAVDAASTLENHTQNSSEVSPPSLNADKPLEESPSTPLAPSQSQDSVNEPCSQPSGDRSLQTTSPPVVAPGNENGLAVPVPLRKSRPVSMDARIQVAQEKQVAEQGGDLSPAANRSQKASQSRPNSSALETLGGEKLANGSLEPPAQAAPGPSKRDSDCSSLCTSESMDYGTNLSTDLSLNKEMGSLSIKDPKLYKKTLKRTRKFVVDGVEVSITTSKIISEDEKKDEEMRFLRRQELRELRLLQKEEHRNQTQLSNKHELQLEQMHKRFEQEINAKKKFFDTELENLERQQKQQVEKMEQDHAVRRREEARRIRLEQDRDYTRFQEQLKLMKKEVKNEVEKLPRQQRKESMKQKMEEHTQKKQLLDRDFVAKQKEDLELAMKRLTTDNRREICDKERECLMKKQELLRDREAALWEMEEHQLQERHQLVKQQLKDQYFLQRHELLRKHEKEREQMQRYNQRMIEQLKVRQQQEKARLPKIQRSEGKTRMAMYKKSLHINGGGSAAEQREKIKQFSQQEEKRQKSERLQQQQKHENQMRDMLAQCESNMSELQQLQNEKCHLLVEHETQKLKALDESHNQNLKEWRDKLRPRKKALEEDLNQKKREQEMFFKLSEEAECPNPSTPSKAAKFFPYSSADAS
T8 sequence (P23743 whole entry): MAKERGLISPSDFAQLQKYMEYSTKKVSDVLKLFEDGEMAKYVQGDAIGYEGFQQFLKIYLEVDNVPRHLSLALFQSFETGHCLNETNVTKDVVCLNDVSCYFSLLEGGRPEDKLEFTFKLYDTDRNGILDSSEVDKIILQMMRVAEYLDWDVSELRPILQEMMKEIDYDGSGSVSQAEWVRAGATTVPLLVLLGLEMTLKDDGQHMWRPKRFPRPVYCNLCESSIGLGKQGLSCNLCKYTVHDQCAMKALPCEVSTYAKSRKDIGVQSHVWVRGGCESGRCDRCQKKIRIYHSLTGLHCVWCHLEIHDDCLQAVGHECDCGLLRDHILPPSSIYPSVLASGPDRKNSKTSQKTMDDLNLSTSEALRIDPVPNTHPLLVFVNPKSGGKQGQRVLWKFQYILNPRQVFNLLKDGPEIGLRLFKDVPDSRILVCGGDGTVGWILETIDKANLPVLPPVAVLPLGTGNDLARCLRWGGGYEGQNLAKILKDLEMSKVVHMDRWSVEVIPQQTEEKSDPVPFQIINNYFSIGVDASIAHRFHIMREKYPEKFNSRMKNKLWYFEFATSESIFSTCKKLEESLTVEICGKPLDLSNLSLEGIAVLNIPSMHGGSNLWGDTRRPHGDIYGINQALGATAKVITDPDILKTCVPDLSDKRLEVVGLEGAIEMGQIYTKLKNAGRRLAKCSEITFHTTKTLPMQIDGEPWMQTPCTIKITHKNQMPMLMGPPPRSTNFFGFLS
T4 sequence (P68400 whole entry, the tested form may be a part): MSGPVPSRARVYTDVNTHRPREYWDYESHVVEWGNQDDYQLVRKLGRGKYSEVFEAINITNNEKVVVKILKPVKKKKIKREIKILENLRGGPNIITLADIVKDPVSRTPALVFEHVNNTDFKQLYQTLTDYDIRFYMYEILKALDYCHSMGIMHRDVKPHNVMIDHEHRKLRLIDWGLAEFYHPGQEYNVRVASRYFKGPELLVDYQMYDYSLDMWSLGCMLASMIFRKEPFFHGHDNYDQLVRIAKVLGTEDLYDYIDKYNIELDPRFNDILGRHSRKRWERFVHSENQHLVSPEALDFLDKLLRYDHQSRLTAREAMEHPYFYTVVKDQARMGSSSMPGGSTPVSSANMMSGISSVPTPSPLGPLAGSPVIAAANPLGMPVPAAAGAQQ
T2 sequence (Q9UBS0 whole entry): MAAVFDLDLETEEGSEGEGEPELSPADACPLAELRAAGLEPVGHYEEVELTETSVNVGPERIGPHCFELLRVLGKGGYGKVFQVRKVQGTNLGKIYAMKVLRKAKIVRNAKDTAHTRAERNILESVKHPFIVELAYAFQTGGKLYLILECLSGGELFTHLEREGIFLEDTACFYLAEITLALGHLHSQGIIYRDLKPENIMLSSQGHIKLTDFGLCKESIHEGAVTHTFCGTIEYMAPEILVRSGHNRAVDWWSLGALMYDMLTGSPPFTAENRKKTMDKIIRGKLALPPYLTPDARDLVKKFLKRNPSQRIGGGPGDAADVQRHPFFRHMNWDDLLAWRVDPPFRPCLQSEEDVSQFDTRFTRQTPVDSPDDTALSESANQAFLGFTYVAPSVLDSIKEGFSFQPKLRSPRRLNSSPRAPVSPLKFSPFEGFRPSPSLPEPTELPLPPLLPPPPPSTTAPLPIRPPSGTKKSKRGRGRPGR
T6 sequence (O75716 whole entry): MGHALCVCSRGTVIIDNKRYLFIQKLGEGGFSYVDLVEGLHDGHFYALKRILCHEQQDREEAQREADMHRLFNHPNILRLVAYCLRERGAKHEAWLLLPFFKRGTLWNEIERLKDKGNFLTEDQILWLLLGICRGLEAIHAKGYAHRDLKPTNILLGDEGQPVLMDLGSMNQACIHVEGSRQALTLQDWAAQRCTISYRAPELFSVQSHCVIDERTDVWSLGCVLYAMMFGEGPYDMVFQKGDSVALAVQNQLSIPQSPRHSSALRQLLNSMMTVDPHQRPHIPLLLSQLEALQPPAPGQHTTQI
T7 sequence (Q9C0K7 whole entry): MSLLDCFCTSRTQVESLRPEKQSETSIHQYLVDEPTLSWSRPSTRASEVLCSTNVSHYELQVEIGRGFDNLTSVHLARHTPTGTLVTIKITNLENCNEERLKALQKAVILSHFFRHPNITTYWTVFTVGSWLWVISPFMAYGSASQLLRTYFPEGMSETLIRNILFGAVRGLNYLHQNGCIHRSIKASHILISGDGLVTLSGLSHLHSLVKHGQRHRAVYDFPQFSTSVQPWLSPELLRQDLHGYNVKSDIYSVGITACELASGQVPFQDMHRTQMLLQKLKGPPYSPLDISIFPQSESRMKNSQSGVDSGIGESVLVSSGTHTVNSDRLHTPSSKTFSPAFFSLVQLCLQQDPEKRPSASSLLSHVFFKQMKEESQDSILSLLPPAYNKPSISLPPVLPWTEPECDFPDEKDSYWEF
T1 sequence (O95819 whole entry): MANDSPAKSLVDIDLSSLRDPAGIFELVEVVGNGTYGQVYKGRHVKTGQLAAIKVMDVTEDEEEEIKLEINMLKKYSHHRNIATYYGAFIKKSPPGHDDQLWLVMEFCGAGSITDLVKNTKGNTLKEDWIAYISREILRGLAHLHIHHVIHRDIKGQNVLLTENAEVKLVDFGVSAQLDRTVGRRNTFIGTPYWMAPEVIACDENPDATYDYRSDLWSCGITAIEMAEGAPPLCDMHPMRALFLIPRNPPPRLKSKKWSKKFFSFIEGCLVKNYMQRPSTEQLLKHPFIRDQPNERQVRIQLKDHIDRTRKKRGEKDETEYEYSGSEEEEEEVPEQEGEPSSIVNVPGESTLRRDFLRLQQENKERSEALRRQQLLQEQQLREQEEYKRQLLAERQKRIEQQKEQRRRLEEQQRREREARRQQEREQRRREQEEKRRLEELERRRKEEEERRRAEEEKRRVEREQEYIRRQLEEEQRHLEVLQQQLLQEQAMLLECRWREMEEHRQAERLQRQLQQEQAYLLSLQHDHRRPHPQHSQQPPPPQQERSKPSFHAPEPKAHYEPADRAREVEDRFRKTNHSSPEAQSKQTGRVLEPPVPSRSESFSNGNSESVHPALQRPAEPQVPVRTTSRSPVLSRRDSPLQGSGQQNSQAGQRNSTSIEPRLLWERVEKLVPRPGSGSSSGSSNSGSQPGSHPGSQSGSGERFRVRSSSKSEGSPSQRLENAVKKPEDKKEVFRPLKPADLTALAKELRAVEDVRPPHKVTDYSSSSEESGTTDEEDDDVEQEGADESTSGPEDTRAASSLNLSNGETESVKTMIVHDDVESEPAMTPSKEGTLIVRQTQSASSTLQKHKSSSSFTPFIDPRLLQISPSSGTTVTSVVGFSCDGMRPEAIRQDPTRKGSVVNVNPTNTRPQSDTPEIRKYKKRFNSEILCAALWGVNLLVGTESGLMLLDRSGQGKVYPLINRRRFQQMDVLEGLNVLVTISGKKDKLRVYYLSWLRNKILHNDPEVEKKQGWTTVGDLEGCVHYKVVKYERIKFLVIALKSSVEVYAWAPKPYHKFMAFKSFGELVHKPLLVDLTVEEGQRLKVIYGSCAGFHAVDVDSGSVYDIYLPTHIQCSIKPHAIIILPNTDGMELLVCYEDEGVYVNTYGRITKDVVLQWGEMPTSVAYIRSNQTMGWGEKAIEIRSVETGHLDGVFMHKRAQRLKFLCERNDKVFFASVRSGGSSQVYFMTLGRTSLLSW

Question: How did the inhibition at 5 µM [1] turn out when Cn1cc(-c2cnc3ccc(NC(=O)Nc4ccc(F)c(C(F)(F)F)c4)cc3n2)cn1 [51-106, 1-(4-Fluoro-3-(trifluoromethyl)phenyl)-3-(3-(1-methyl-1H-pyrazol-4-yl)quinoxalin-6-yl)urea] was run?
Answer: 3.1%

Question: And the inhibition at 5 µM [2]?
Answer: 22.5%

Question: And the “% Inhibition” value ([3]; 5 µM, Lys1, NKETGALAAAKVIETK)?
Answer: NB (NB = No Binding (≤ 0))

Question: What about the inhibition at 5 µM ([3]; Lys2, […]) of the same molecule?
Answer: ≤ 0%

Question: And the “% Inhibition” value ([4]; Lys1, KLIHLEIKPAIR)?
Answer: NB (NB = No Binding (≤ 0))

Question: What about the “% Inhibition” value ([4]; Lys2, DVKPSNILVNSR) of the same molecule?
Answer: 1.2%

Question: And the “% Inhibition” value [5]?
Answer: 10.6%

Question: And the inhibition at 5 µM [6]?
Answer: ≤ 0%

Question: What about the “% Inhibition” value ([7]; Lys1, HVPSGQIMAVKR) of the same molecule?
Answer: NB (NB = No Binding (≤ 0))

Question: What about the “% Inhibition” value ([7]; Lys2, DVKPSNVLINALGQVK) of the same molecule?
Answer: NB (NB = No Binding (≤ 0))

Question: And the inhibition at 5 µM ([7]; ATP Loop, […])?
Answer: ≤ 0%

Question: What about the inhibition at 5 µM [8] of the same molecule?
Answer: ≤ 0%

Question: And the “% Inhibition” value [9]?
Answer: 15.4%

Question: And the inhibition at 5 µM [10]?
Answer: 5.8%

Question: What about the inhibition at 5 µM [11] of the same molecule?
Answer: ≤ 0%
